US20030153548A1, “Histamine-3 receptor ligands for diabetic conditions” (priority 2002, published 2003)

Key:
[1] = system: C57BL-6J mice fed a high-fat diet; assay: Insulin tolerance test in mice fed a high-fat diet; format: in vivo; conditions: FIG. 1
Method: Assessment of the ability of H3 receptor antagonists to ameliorate symptoms of diabetes has been determined in several ways. In the first instance, effects of an H3 antagonist on the insulin tolerance test in mice fed a high-fat diet were determined. C57BL-6J mice (aged 5-6 weeks) were obtained from Jackson Labs (Bar Harbor, Me., U.S.A.) and individually housed at Abbott facilities under conditions of 12 h lights on, 12 h lights off (on at 22:00), with food and water available ad libitum. […] Nine days prior to drug treatment, postprandial blood glucose was determined via a Medisense-G glucometer (Abbott Laboratories, Medisense Division, Bedford, Mass., U.S.A.). […] On day 21, animals were fasted for 3 hours and fasting blood glucose determined in a blood sample obtained by tail snip. Insulin tolerance was determined by administering insulin (Lilly Humulin-R, 0.25 U/kg, i.p., obtained from Eli Lilly and Company, Indianapolis, Ind., U.S.A.) with blood glucose measured at 30, 60, 90 and 120 minutes using the glucometer. […] The 4′-{3-[(3R)-3-(dimethylamino)pyrrolidinyl]propoxy} [1,1′-biphenyl]-4-carbonitrile compound was administered p.o. at doses of 0.5, 5, and 15 mg/kg b.i.d., and dexfenfluramine at a dose of 10 mg/kg p.o., b.i.d. Data were analyzed using GraphPad InStat® (San Diego, Calif., U.S.A.) software using a one-way ANOVA software followed by Dunnett's post hoc test.

[2] = system: C57BL-6J mice fed a high-fat diet; assay: Serum triglyceride levels in mice fed a high-fat diet; format: in vivo; conditions: FIG. 2

In the case of `CN(C)[C@@H]1CCN(CCCOc2ccc(-c3ccc(C#N)cc3)cc2)C1` [Compound A, 4′-{3-[(3R)-3-(dimethylamino)pyrrolidinyl]propoxy}[1,1′-biphenyl]-4-carbonitrile], the “insulin tolerance test (blood glucose after insulin)” value ([1]; 15 mg/kg p.o. twice daily) is reported as “completely normalized” and the “insulin tolerance test (blood glucose after insulin)” value ([1]; 0.5, 5 and 15 mg/kg p.o. b.i.d., day 21, insulin 0.25 U/kg i.p.) is reported as “dose-dependent improvement”.

`CN(C)C1CCN(CCCOc2c(F)cc(-c3ccc(C#N)cc3)cc2F)C1` (centres unmarked) [Compound B] was tested, and the triglyceride levels ([2]; 10 mg/kg p.o. b.i.d., after 13 days) was “reduced to the same level as those seen in low-fat diet fed mice” and the triglyceride levels ([2]; 1, 3 and 10 mg/kg p.o. b.i.d., postprandial blood after 13 days) was “clear, dose-dependent decrease”.

`CC(C)CC(N(C)C)C1(c2ccc(Cl)cc2)CCC1` (centres unmarked) [sibutramine, reference compound] was tested, and the “triglyceride levels (effects as of Compound B)” value ([2]; 5 mg/kg p.o. b.i.d., after 13 days) was “not seen”.
